Blank lines part the entries; values can stand above or below the molecule they belong to.
What was measured:
Assay type in all cases: cell-based, human
[1] = test system: cardiac infarct organoids; experiment: Contraction analysis of beating organoids (contraction amplitude, beat rate), infarct organoids
Method: For the cardiac infarction protocol, microtissues (about150 μm radius on D0) were placed in a hypoxia chamber within the incubator at about 10% O2 with 1 μM of norepinephrine (NE, A7257, Sigma) after 4 days of pre-culture. Media was changed with fresh NE every 2 days for the length of the experiment (10 days). For extended validation studies, 20 ng/ml of human recombinant transforming growth factor beta 1 (TGF-β1, ab50036, Abcam, Cambridge, UK), 10 nM of JQ1 (SML1524, Sigma), and 2 ng/ml of human recombinant vascular endothelial growth factor (VEGF, CC-4114A, Lonza) was added to the media every 2 days for infarct organoids for the length of the experiment (10 days).
(§1) Videos of spontaneously beating spheroids from each group were recorded immediately out of the incubator (to reduce temperature induced changes in beating) for each condition using a Carl Zeiss Axiovert A1 Inverted Microscope and Zen 2011 software (Zeiss, Gottingen, Germany). Threshold edge-detecting in ImageJ software (NIH—US National Institutes of Health) was used on high contrast spheroid picture series and graphed to realize beating profiles of fractional area change, from which contraction amplitude was calculated. Contraction amplitudes were calculated as the percent change in fractional area change amplitude between contraction and relaxation. Beat rate was calculated as the number of beats per second.

[2] = test system: control cardiac organoids; experiment: Contraction analysis of beating organoids (contraction amplitude, beating), control organoids
Description: Non-adhesive agarose hydrogel molds were used as microtissue fabrication molds made from commercial master micro-molds from Microtissues, Inc (Providence, R.I.). Working cell suspensions of each cell type were used at about 4.0×10^6 cells/ml to make organoid cell ratio mixtures of about 50% hiPSC-CMs and about 50% non-myocyte (4:2:1 ratio of FBs, HUVECs, hADSCs, respectively) and mixed with 1 volume media for a final concentration of about 2.0×10^6 cells/ml. hiPSC-CM only spheroids were fabricated using 100% hiPSC-CMs at a final concentration of about 2.0×10^6 cells/ml. Approximately 75 μl of the cell suspension was pipetted into each agarose mold. […]
as §1

[3] = test system: cardiac infarct organoids; experiment: TUNEL apoptotic staining of organoid sections; conditions: 1 μM, 48 hours of exposure
Method: The Roche In Situ Cell Death Detection Kit (Sigma) was used to visualize apoptotic cells in frozen sections of cardiac organoids based on the Roche protocol. Briefly, cardiac organoid frozen sections were fixed with 4% paraformaldehyde in PBS for 20 min at room temperature. Following washing in PBS for 30 minutes, samples were incubated in a permeabilization solution (0.1% Triton X-100 and 0.1% sodium citrate in PBS) for 2 minutes on ice. Then 50 μl of the TUNEL reaction mixture were added to samples and incubated at 37° C. for 1 hr. After washing in PBS (2 times at 5 min), nuclei were counterstained with DAPI (Molecular Probes/Invitrogen) diluted in PBS for 15 min at ambient temperature. Following the final wash procedure (PBS, 2 times at 5 min), glass cover slips were added to the slides using Fluoro-Gel (Electron Microscopy Sciences). TCS SP5 AOBS laser scanning confocal microscope (Leica Microsystems) was used for imaging.

[4] = test system: cardiac infarct organoids; experiment: Immunofluorescent staining of organoid sections (vimentin, alpha sarcomeric actinin, αSMA, collagen), infarct organoids
Method: (§2) Freshly collected organoids were flash frozen in Tissue-Tek OCT compound (Sakura, Torrance, Calif.). Embedded spheroids were cryosectioned into 7 μm thickness layers onto glass slides for immunofluorescence staining. The sections were fixed with pre-cooled acetone (−20° C.) for 10 min. After washing (2 times at 5 min) in PBS with 0.1% Triton X-100 (PBST) (Sigma), blocking buffer was made with 10% serum corresponding to host species of secondary antibody in PBST and added to sections for 1 hr at room temperature. Sections were incubated with primary antibody diluted in PBST (1:200) overnight at 4° C. or 2 hrs at room temperature: mouse anti-alpha smooth muscle actin (A5228, Sigma), mouse anti-alpha sarcomeric actinin (ab9465, Abcam), rabbit anti-collagen type I (ab34710, Abcam), rabbit anti-vimentin (ab92547, Abcam), rabbit anti-von Willebrand factor (ab6994, Abcam). After washing in PBST (2 times at 5 min), sections were incubated with complement secondary antibodies or conjugated primary antibodies diluted in PBST for 1 hr at room temperature: Alexa Fluor 488 phalloidin (A12379, Thermo), goat anti-mouse Alexa Fluor 546 (A1103, Thermo), goat anti-rabbit Alexa Fluor 647 (111-605-144, Jackson ImmunoResearch, West Grove, Pa.). After washing in PBST (2 times at 5 min), nuclei were counterstained with DAPI (Molecular Probes/Invitrogen, Eugene, Oreg.) diluted in PBST for 15 min at room temperature. Following the final wash procedure (PBST, 2 times at 5 min), glass cover slips were added using Fluoro-Gel (Electron Microscopy Sciences, Hatfield, Pa.) and stored in 4° C. until imaging. TCS SP5 AOBS laser scanning confocal microscope (Leica Microsystems, Inc., Exton, Pa.) was for imaging. Vimentin radial density was calculated using the Radial Profile ImageJ plugin and normalized to radius equal to 1. Each analysis consisted of high resolution images at 400× total magnification of cross sections of different organoids.

[5] = test system: control cardiac organoids; experiment: Immunofluorescent staining of organoid sections (vimentin), control organoids; conditions: 48 hrs of exposure
Method: as §2, with “After washing in PBST (2 times at 5 min), nuclei were counterstained with DAPI (Molecular Probes/Invitrogen, Eugene, Oreg.) diluted in PBST for 15 min at room temperature. Following the final wash procedure (PBST, 2 times at 5 min), glass cover slips were added using Fluoro-Gel (Electron Microscopy Sciences, Hatfield, Pa.) and stored in 4° C. until imaging. TCS SP5 AOBS laser scanning confocal microscope (Leica Microsystems, Inc., Exton, Pa.) was for imaging.” left out, “Each analysis consisted of high resolution images at 400× total magnification of cross sections of different organoids.” left out

[6] = test system: hiPSC-CMs; experiment: 2D hiPSC-CM culture with in vitro infarction protocol and DOX; conditions: hypoxic culture (1%) with 1 μM NE 2 days prior to 2 days DOX treatment
Description: As a control, we performed 2D studies using hiPSC-CMs with DOX to evaluate the combined effects of an in vitro infarction protocol and DOX on hiPSC-CMs. […] Nearly 100% of cells death was found for hiPSC-CMs after 4 days of the same hypoxic culture using hiPSC-CM media with galactose but no glucose, which has been attributed to the lack of glucose in the hiPSC-CM media. In addition, extended culture of 2D hiPSC-CMs in organoid media to mimic prolonged organoid infarction protocol led to minimal and irregular hiPSC-CM contractile behavior accompanied with the reduction of αSA+ cells. In contrast to the inherent difficulties of using 2D hiPSC-CM culture systems to model post-MI responses, human infarct organoids provide a robust, biomimetic […] tissue-level context to evaluate the effects of DOX on the post-MI cardiac tissues.

[7] = test system: cardiac infarct organoids; experiment: Mechanical testing using micropipette aspiration (elastic modulus)
Method: A micropipette aspiration was performed in media similarly to previous studies using a custom-built fluid reservoir to generate a fixed pressure of 40 cm H2O (about 3.9 kPa) in pulled micropipette to apply the suction force on test organoids.^23,24 Validation and stability of pressure changes were confirmed using an in-line 5 kPa 2-port pressure transducer with about 1 Pa sensitivity (Honeywell, Morristown, N.J.). Micropipettes were pulled to a final inner diameter of approximately 40-60 μm. Prior to and during testing, organoids were soaked in a 30 mM solution of 2,3-butanedione monoxime (BDM) (Sigma) in media for 5-10 min to eliminate contractions to reduce the effect of contractile status on tissue stiffness. Pressure was applied to the organoid surface and pictures were recorded until reaching equilibrium deformation (about 5 min) (FIG. 2F). Under the homogeneous half-space model assumptions^23, the change in length (L) from pre-deformation to equilibrium deformation was used to calculate the elastic modulus according the previously established relationship: E=3aΔp/2πL Φ(η), where E is elastic modulus, a is the inner micropipette radius, Δp is the applied pressure, Φ( ) is the wall function (under punch model assumptions), and η is the wall parameter.^24,25

[8] = test system: cardiac infarct organoids; experiment: Calcium transient imaging with two-photon light sheet microscope (beating synchronization)
Description: To functionally interpret the transcriptomic shifts in cardiomyocyte calcium handling and arrhythmogenesis, a two-photon, laser-scanning, light sheet (2PLS) microscope was used that allowed for deeper tissue penetration with high-speed imaging (50 frames/sec) and orthogonal selected plane (about 4 μm thickness) illumination.^27 Given its strength for in situ imaging, the 2PLS microscope allowed for the visualization of calcium handling in the interior regions of 3D cardiac microtissues to study calcium handling and arrhythmogenicity across the organoids. Organoids were fabricated with GCaMP6-labeled hiPSC-CMs and calcium transient amplitudes (ΔF/F0) were measured from “cell-sized” regions of interest (ROIs) (representing individual cardiomyocytes) inside organoids. […] In particular, imaging and calcium transient profiles of synchronized edge and interior cardiomyocyte ROIs from human induced pluripotent stem cell-derived-cardiomyocyte (hiPSC-CM) spheroids were cultured in the cardiac organoid infarction protocol.

[9] = 10 nM added to infarct organoid culture
[10] = 20 ng/ml added during infarction protocol

- IC50 ([1]; Homo sapiens, infarct organoids, 48 hrs of exposure starting on D10): ~0.15 µM
- concentration at cessation of beating ([1]; infarct organoids): 1 µM
- concentration at cessation of beating [2]: 10 µM
- IC50 ([2]; Homo sapiens, 48 hrs of exposure starting on D10): ~0.37 µM
- dose inducing an increase in vimentin+ density ([4]; infarct organoids, 48 hrs of exposure): 0.1 µM
- αSA staining relative to vehicle control (sarcomeric organization) ([4]; interior of infarct organoids, 0.1 μM): significantly decreases
- dose inducing an increase in vimentin+ density [5]: 1.0 µM
Molecule: COc1cccc2c1C(=O)c1c(O)c3c(c(O)c1C2=O)C[C@@](O)(C(=O)CO)C[C@@H]3O[C@H]1C[C@H](N)[C@H](O)[C@H](C)O1 [DOX, doxorubicin]
- apoptosis (TUNEL analysis) [3]: significantly increased apoptosis
- viability and contractile structures/organization of 2D hiPSC-CMs [6]: exacerbation of DOX-induced reduction in viability and reduction in contractile structures/organization

Molecule: Cc1sc2c(c1C)C(c1ccc(Cl)cc1)=N[C@@H](CC(=O)OC(C)(C)C)c1nnc(C)n1-2 [JQ1]
- vimentin+ density at the infarct organoid edge [4, 9]: significantly reduced
- organoid stiffness (elastic modulus) [7, 9]: significant decrease in stiffness
- unsynchronized beating of infarct organoids ([8]; 10 nM): reduction of unsynchronization

Molecule: NC[C@H](O)c1ccc(O)c(O)c1 [NE, norepinephrine]
- beat rate ([1]; 10% O2 with 1 μM for 10 days, versus control organoids): increase in beat rate

Molecule: COCCc1ccc(OCC(O)CNC(C)C)cc1 (centres unmarked) [metoprolol]
- NE-induced increase in beat rate ([1]; infarct organoids cultured with 10 μM, D10): reversed

Molecule: TGF-β1: human recombinant transforming growth factor beta 1, pro-fibrotic stimulus
- collagen organization and presence of αSMA+ myofibroblast-like cells [4, 10]: further increased
- organoid stiffness (elastic modulus) [7, 10]: significant increase in organoid stiffness

Molecule: VEGF
- unsynchronized beating of infarct organoids ([8]; 2 ng/ml): reduction of unsynchronization

Reference: US20220162559A1, “MYOCARDIAL ORGANOIDS AND METHODS OF MAKING AND USES THEREOF” (CLEMSON UNIVERSITY RESEARCH FOUNDATION, priority 2018, published 2022)
